Measurements taken from patent US20170283408A1, “BENZO-HETEROCYCLIC COMPOUNDS AND THEIR APPLICATIONS” (priority 2014, published 2017).

Experiments:
HLA-DR = HLA-DR level in LPS-primed monocyte model (flow cytometry); type: cell-based, human; details: LPS-primed monocytes; FIG. 3
From the text: (§1) White blood cells of test subjects including healthy volunteers recruited from the Taiwan Blood Service Foundation (Taipei, Taiwan) and septic patients were obtained with written informed consents. Human monocytes were then isolated in accordance with procedures described previously (Chen I H et al., Cancer Immunol Immunother (2010) 59, 323-334). Briefly, peripheral blood mononuclear cells (PBMCs) were isolated using Ficoll-Paque Plus (GE Healthcare) gradient centrifugation. The monocytes were further purified by conducting CD14 selection using CD14 MACS microbeads (Miltenyi Biotec). The purity of monocytes confirmed using flow cytometry analysis was approximately 90%. Monocytes were incubated with endotoxin LPS (100 ng/ml) for 72 hours. At the indicated time point, the cells were harvested and the PD-L1 and HLA-DR molecules were analyzed using flow cytometry. Murine B16F10 cell lines maintained in Dulbecco's modified Eagle's medium (DMEM), 10% heat-inactivated fetal calf serum, 2 mM L-glutamine, penicillin (100 U/ml), and streptomycin (100 μg/ml) at 37 C in a 5% CO2 humidified atmosphere.
(§2) To analyze the surface phenotype of the monocytes, the cells were incubated for 30 minutes on ice in the dark with the following mAbs diluted in phosphate-buffered saline (PBS) containing 1% BSA: PD-L1-FITC, HLA-DR-PE, CD14-PerCP (BD Biosciences). Monocytes were gated based on their FSC/SSC properties. Fluorescence was detected using FACS Calibur, and data analysis was performed using FCS Express version 3 (De Novo Software).
In this example, an LPS-primed monocyte model was established and then used to evaluate the function of the compound of example 1. Specifically, monocytes isolated from healthy subjects according to procedures described in the “Materials and methods” section were incubated with LPS (100 ng/mL) for 72 hours, then respective levels of PD-L1 and HLA-DR were determined. Results are illustrated in FIG. 2. […]

PD-L1 [1] = experiment: PD-L1 expression on IFN-γ stimulated B16F10 cells (flow cytometry); type: cell-based, murine; details: various concentrations, 1 day; FIG. 5
Description: as §1, with “IFN-γ stimulated-monocytes were incubated in the presence of either a DMSO vehicle control, ML-A1-B or ML-A1-C for 1 day. Treated cells were harvested and the PD-L1 molecules were analyzed using flow cytometry. Surface molecule expression is presented as the MFI relative to each day that the cells were treated with the DMSO vehicle control medium. Values are presented as the mean±SEM from 3 independent experiments. White” for “White”, “Murine B16F10 cell lines maintained in Dulbecco's modified Eagle's medium (DMEM), 10% heat-inactivated fetal calf serum, 2 mM L-glutamine, penicillin (100 U/ml), and streptomycin (100 μg/ml) at 37 C in a 5% CO2 humidified atmosphere.” left out

PD-L1 [2] = experiment: PD-L1 level in LPS-primed monocyte model (flow cytometry); type: cell-based, human; details: for expression level of PD-L1 in LPS-primed monocytes, of that of the control: compound at 10 μM, LPS 100 ng/mL, relative to control
From the text: as §1, §2
In this example, an LPS-primed monocyte model was established and then used to evaluate the function of the compound of example 1. Specifically, monocytes isolated from healthy subjects according to procedures described in the “Materials and methods” section were incubated with LPS (100 ng/mL) for 72 hours, then respective levels of PD-L1 and HLA-DR were determined. Results are illustrated in FIG. 2.
The effects of the compounds of example 1 were tested in the LPS-primed monocyte model of example 3.1, in which various concentrations of ML-C19-A, ML-C19-B, ML-A1-B, and ML-A1-C were incubated with LPS-primed monocytes of example 3.1; results are illustrated in FIGS. 3 and 4.

B16F10 lung metastases [3] = experiment: B16F10 lung metastasis model in NOD/SCID mice; type: in vivo; details: 2 mg/kg, day 14, n=5/group
Description: (§3) NOD/SCID (n=5/group) mice were injected i.v. with 2×10^5 of the B16F10 tumor cells. Two mg/kg of ML-A1-B, ML-A1-C, or with DMSO vehicle control were used. The animals were killed on day 14 and tumor nodules in the lungs were counted. Data are presented as the number of each individual mouse and the mean of each group. Representative photographs of the lung of each group are also shown (left).
(§4) C57BL/6 mice (6 to 8 weeks old) and NOD/SCID mice (6 to 8 weeks old) were purchased from the National Laboratory Animal Center (Taipei, Taiwan). All animal experiments were performed under specific pathogen-free conditions and in accordance with guidelines approved by the Animal Care and Usage Committee of Mackay memorial hospital (Taipei, Taiwan).
To generate lung metastases, mice were injected intravenously with 2×10^5 B16F10 cells, a dose consistently yielding lung metastases in 100% of animals. 2 mg/kg compounds and 5% DMSO vehicle control were given ip daily to test the effect of compounds on tumor metastatsis. The amount of tumor seeding was counted as total numbers of black nodules presented in the lungs under microscopy. […]

B16F10 lung metastases [4] = experiment: B16F10 lung metastasis model in C57BL/6 mice; type: in vivo; details: 2 mg/kg ip daily, day 14, n=11/group
Description: as §3, with “C57BL/6 (n=11/group)” for “NOD/SCID (n=5/group)”
as §4
To generate lung metastases, mice were injected intravenously with 2×10^5 B16F10 cells, a dose consistently yielding lung metastases in 100% of animals. 2 mg/kg compounds and 5% DMSO vehicle control were given ip daily to test the effect of compounds on tumor metastatsis. The amount of tumor seeding was counted as total numbers of black nodules presented in the lungs under microscopy.
To examine the therapeutic effect of ML-A1-B and ML-A1-C against pre-established B16F10 lung metastases, mice were iv injected with 2×10^5 B16F10 tumor cells and treated with, per mouse, 2 mg/kg of ML-A1-B, ML-A1-C, or with DMSO vehicle control.

[5] = In vivo toxic study (body weight); details: 20 mg/kg ip daily; C57BL/6
Description: C57BL/6 mice were ip injected daily with 20 mg/kg of ML-A1-B, or ML-A1-C, or 5% DMSO vehicle control, and their body weight were measured on the indicated days.
To investigate toxicity of ML-A1-B and ML-A1-C, mice were injected ip daily with 20 mg/kg of ML-A1-B or ML-A1-C or 5% DMSO vehicle control.

B16F10 lung metastases [6] = experiment: Compounds and anti-PD-1 antibody combination therapy in B16F10 lung metastasis model (survival); type: in vivo, C57BL/6 mice; details: compound 2 mg/kg daily combined with anti-PD-1 (J43) 5 mg/kg every 3-4 days; C57BL/6
Description: C57BL/6 mice were injected iv with 2×10^5 B16F10 cells on Day0. On Day1, mice were injected ip with either control hamster Ig (CTRL IgG) or hamster anti-mouse-PD-1 (J43) at 5 mg/kg every 3-4 days. For combination therapies, mice were daily injected with 2 mg/kg of ML-C19-A or ML-A1-C combined with anti-mouse PD-1 (5 mg/kg) every 3-4 days. Long-term of survival of treated mice in each of the experimental groups were observed.
To examine whether combination of ML-C19-A or ML-A1-C with anti-PD-1 antibody would prolong mice survival in B16F10 lung metastasis model, mice were injected ip with compounds and anti-PD-1 antibody.

[7] = tested on: murine B16F10 melanoma cells; experiment: MTS cytotoxicity assay, B16F10; type: cell-based; details: Mus musculus, B16-F10, B16F10; FIG. 6; read-out: IC50 (MTS assay), B16F10 melanoma cell line
Description: (§5) The B16F10 and human PBMCs were incubated in the presence of various concentrations of ML-A1-B and ML-A1-C compounds for 1 day. The cell cytotoxicity was monitored through MTS assay. Optical density of DMSO control groups was taken as 100% of cell viability. Values are presented as the mean±SEM from 3 independent experiments.
(§6) 5×10^3 of B16F10 cells were seeded into 96-well plates and treated with the following: DMSO control, various concentrations of naphthalimide derived compounds for 2 day. For the MTS assay (Promega), 40 ul of the MTS reagent was added into each well. Cells were incubated at 37° C. for 4 hr. The absorbance was detected at OD490 nm.
(§7) The cytotoxicity of various concentrations of ML-A1-B and ML-A1-C against murine B16F10 melanoma cells and human PBMCs were examined by MTS assay. […] Therapeutic index by MTS assay is about 5.62.

human PBMCs = experiment: MTS cytotoxicity assay, human PBMCs; type: cell-based
Description: as §5, §6, §7

CN(C)CCN1C(=O)c2cccc3c(-c4nc5ccccc5o4)ccc(c23)C1=O [ML-A1-B, 6-(Benzo[d]oxazol-2-yl)-2-(2-(dimethylamino)ethyl)-1H-benzo[de]isoquinoline-1,3(2H)-dione]
levels of HLA-DR expression (HLA-DR): capable of altering the levels of HLA-DR expression | PD-L1 on IFN-γ stimulated murine B16F10 melanoma cell line (PD-L1 [1]): significantly suppresses PD-L1 | expression level of PD-L1 in LPS-primed monocytes, of that of the control (PD-L1 [2]): ~9.4% | lung metastasis in immune deficient NOD/SCID mice (B16F10 lung metastases [3]): failed to inhibit lung metastasis | number of lung metastases (lung nodules), mean (B16F10 lung metastases [4]): 41 | number of lung metastases (lung nodules), range (B16F10 lung metastases [4]): 2-90 | body weight of the mice [5]: do not significantly reduce the body weight | visible sign of toxicity [5]: no visible sign of toxicity

CN(C)CCN1C(=O)c2cccc3c(-c4nc5ccccc5s4)ccc(c23)C1=O [ML-A1-C, 6-(Benzo[d]thiazol-2-yl)-2-(2-(dimethylamino)ethyl)-1H-benzo[de]isoquinoline-1,3(2H)-dione]
overall survival (B16F10 lung metastases [6]): an increase in overall survival | IC50 [7]: 7.8 ± 0.05 µM | levels of HLA-DR expression (HLA-DR): capable of altering the levels of HLA-DR expression | PD-L1 on IFN-γ stimulated murine B16F10 melanoma cell line (PD-L1 [1]): significantly suppresses PD-L1 | IC50 (human PBMCs; Homo sapiens, PBMC, human PBMCs, FIG. 6): 48.3 ± 0.14 µM | Therapeutic index by MTS assay (human PBMCs; ratio of PBMC IC50 to B16F10 IC50): about 5.62 | expression level of PD-L1 in LPS-primed monocytes, of that of the control (PD-L1 [2]): ~50.8% | lung metastasis in immune deficient NOD/SCID mice (B16F10 lung metastases [3]): failed to inhibit lung metastasis | number of lung metastases (lung nodules), mean (B16F10 lung metastases [4]): 30 | number of lung metastases (lung nodules), range (B16F10 lung metastases [4]): 3-59 | body weight of the mice [5]: do not significantly reduce the body weight | visible sign of toxicity [5]: no visible sign of toxicity

NS(=O)(=O)c1ccc(N2C(=O)c3cccc4cccc(c34)C2=O)cc1 [ML-C19-A]
overall survival (B16F10 lung metastases [6]): an increase in overall survival | expression level of PD-L1 in LPS-primed monocytes, of that of the control (PD-L1 [2]): about 37.5%

NS(=O)(=O)c1ccc(N2C(=O)c3cccc4c(Br)ccc(c34)C2=O)cc1 [ML-C19-B, 4-(6-bromo-1,3-dioxo-1H-benzo[de]isoquinolin-2(3H)-yl)benzene-sulfonamide]
levels of HLA-DR expression (HLA-DR): capable of altering the levels of HLA-DR expression | reduction in PD-L1 level as compared with that of the control (PD-L1 [2]; LPS-primed monocytes, FIG. 3): 20%
